Counter-ions that a name gives are not always drawn.
assay: Aqueous solubility of amorphous vs crystalline lercanidipine hydrochloride; format: physicochemical; settings: water, stirring at 27-28° C. for 24 hr, filtered, HPLC
Protocol: The aqueous solubility of amorphous lercanidipine hydrochloride, was compared to the solubility of crystalline lercanidipine hydrochloride. The solubility of the respective samples was determined by suspending 20-30 mg of sample test was in 10 mL water and stirring at 27-28° C. for 24 hr. The sample was then filtered through a PVDF filter (0.2 micron) and the solution diluted with acetonitrile and analyzed by HPLC.

SOLUBILITY [mg/L] | SMILES
0.65 | COC(=O)C1=C(C)NC(C)=C(C(=O)OC(C)(C)CN(C)CCC(c2ccccc2)c2ccccc2)C1c1cccc([N+](=O)[O-])c1 (stereo not drawn) [Crystalline lercanidipine HCl (Form I), methyl 1,1,N-trimethyl-N-(3,3-diphenylpropyl)-2-aminoethyl 1,4-dihydro-2,6-dimethyl-4-(3-nitrophenyl)pyridine-3,5-dicarboxylate, reference compound]
1.5 | COC(=O)C1=C(C)NC(C)=C(C(=O)OC(C)(C)CN(C)CCC(c2ccccc2)c2ccccc2)C1c1cccc([N+](=O)[O-])c1 (stereo not drawn) [Amorphous lercanidipine HCl (Example 2), methyl 1,1,N-trimethyl-N-(3,3-diphenylpropyl)-2-aminoethyl 1,4-dihydro-2,6-dimethyl-4-(3-nitrophenyl)pyridine-3,5-dicarboxylate]
1.5 | COC(=O)C1=C(C)NC(C)=C(C(=O)OC(C)(C)CN(C)CCC(c2ccccc2)c2ccccc2)C1c1cccc([N+](=O)[O-])c1 (stereo not drawn) [Amorphous lercanidipine HCl (Example 1), methyl 1,1,N-trimethyl-N-(3,3-diphenylpropyl)-2-aminoethyl 1,4-dihydro-2,6-dimethyl-4-(3-nitrophenyl)pyridine-3,5-dicarboxylate]
